The values that follow are results of earlier work, collected in US20130280331A1, “Depot Compositions with multiple drug release rate controls and uses thereof” (Durect Corporation, priority 2001, published 2013).

Take `CC(=O)OCC(COC(C)=O)OC(C)=O` [triacetin]: the “reported solubility in water” value is 7.17 grams in 100 ml of water.
